Laboratory results as given in ChEMBL document CHEMBL1130294, “Subsite requirements for peptide aldehyde inhibitors of human calpain I” (Bioorg Med Chem Lett, 1997).
Residues, ends and D or L forms follow the SMILES beside them. *: point of attachment. Cbz = O=C(OCc1ccccc1)*

Molecular target: T1, Calpain-1 catalytic subunit (Homo sapiens, UniProt P07384)
T1 sequence (P07384 whole entry): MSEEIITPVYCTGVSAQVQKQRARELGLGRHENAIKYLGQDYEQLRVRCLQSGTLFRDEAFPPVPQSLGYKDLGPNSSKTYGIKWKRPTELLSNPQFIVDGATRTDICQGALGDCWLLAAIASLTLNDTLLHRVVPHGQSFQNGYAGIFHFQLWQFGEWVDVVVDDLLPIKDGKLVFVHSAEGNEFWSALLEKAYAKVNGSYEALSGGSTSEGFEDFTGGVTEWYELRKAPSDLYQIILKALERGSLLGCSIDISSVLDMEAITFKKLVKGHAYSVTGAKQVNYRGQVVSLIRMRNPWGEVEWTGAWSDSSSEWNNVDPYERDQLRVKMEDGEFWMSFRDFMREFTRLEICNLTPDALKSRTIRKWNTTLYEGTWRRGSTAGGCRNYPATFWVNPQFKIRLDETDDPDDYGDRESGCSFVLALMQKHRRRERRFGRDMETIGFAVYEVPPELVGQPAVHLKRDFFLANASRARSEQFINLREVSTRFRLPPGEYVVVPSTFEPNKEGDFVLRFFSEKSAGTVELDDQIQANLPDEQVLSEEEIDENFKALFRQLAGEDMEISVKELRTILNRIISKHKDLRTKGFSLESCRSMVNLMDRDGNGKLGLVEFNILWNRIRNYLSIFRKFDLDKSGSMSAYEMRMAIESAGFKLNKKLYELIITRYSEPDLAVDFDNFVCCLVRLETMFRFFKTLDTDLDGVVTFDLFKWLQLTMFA
Experiment: Inhibitory activity evaluated against recombinant human calpain 1

IC50 [nM]	Structure (SMILES)
19	CC(C)C[C@@H](C=O)NC(=O)[C@H](CC(C)C)NC(=O)[C@H](CC(C)C)NC(=O)OCc1ccccc1 (Cbz-Leu-Leu-Leu-aldehyde)
130	CC(=O)N[C@@H](CC(C)C)C(=O)N[C@H](C=O)CC(C)C
17	CC(C)C[C@@H](C=O)NC(=O)[C@H](CC(C)C)NC(=O)[C@H](CC(C)C)NC(=O)[C@H](Cc1c[nH]cn1)NC(=O)OCc1ccccc1 (Cbz-HLLL-aldehyde)
